In ChEMBL document CHEMBL3758164, “Identification of new SUMO activating enzyme 1 inhibitors using virtual screening and scaffold hopping” (Bioorg Med Chem Lett, 2016):

Legend:
[1] = target: T1, SUMO-activating enzyme subunit 1 (Homo sapiens) (UniProt Q9UBE0); experiment: Inhibition of recombinant GST-fused SUMO E1 (unknown origin) using RanGAP1 as substrate at 20 uM after 2 hrs by immunoblot analysis; settings: values are per cent of control
T1 sequence (whole entry): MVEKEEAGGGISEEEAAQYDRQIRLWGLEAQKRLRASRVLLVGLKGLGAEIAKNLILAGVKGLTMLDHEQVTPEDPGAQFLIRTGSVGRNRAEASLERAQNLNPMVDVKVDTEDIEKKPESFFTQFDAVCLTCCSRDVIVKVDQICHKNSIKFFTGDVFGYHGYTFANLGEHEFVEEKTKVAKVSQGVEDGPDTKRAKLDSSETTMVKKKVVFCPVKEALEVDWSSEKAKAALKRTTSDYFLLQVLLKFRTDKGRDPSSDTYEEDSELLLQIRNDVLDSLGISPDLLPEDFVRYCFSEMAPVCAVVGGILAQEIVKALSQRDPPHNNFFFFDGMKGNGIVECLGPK

[2] = target: T1, SUMO-activating enzyme subunit 1 (Homo sapiens); experiment: Inhibition of recombinant GST-fused SUMO E1 (unknown origin) using RanGAP1 as substrate at 100 uM after 2 hrs by immunoblot analysis; settings: values are per cent of control
[3] = target: T2, SUMO-activating enzyme subunit 1 (Homo sapiens, UniProt Q9UBE0); experiment: (§1) Inhibition of recombinant GST-fused SUMO E1 (unknown origin) using RanGAP1 as substrate after 2 hrs by immunoblot analysis
T2 sequence (Q9UBE0 whole entry): T1 sequence (whole entry)

[4] = target: T1, SUMO-activating enzyme subunit 1 (Homo sapiens); experiment: as §1

Structure (SMILES) | residual activity [1] | residual activity [2] | IC50 [3] | inhibition [4]
COc1ccc(NC(=O)Nc2nc3cc(C)c(C)cc3s2)cc1OC | 94.6% | 76.6% | – | –
Cn1nc(-c2ccccc2)cc1NC(=O)Nc1ccc(OCc2ccccc2)cc1 | 72% | 3% | – | –
COc1ccc(NC(=O)Nc2ccc(Oc3ncnc4cc(Cl)ccc34)nc2)cc1OC1CCCC1 | – | – | 13.4 µM | –
COc1ccc(NC(=O)Nc2cc(C)nn2-c2ccc(F)cc2)cc1 | 97.7% | 95.4% | – | –
Cn1nc(C(C)(C)C)cc1NC(=O)Nc1ccc(OCc2ccccc2)cc1 | 92.9% | 97.3% | – | –
COc1cccc(NC(=O)Nc2cc(C)nn2C2CCCC2)c1 | 100% | 101% | – | –
CCOC(=O)c1sc(NC(=O)Nc2ccc(Cl)c(Cl)c2)nc1C | 53.8% | 0.7% | – | –
Cc1ccc(-c2nc(NC(=O)Nc3ccc(F)cc3)sc2C)cc1Cl | 93.9% | 94.8% | – | –
Cc1ccc(-c2nc(NC(=O)Nc3ccc(OCc4ccccc4)cc3)sc2C)cc1Cl | 64.8% | 31.6% | – | –
CCc1cc(=O)[nH]c(-n2nc(-c3ccccc3)cc2NC(=O)Nc2cc(OC)cc(OC)c2)n1 | 82.3% | 26.8% | – | –
COc1cc(NC(=O)Nc2nc(-c3nc4ccccc4s3)cs2)cc(OC)c1OC | 37.6% | 3.96% | 33.2 µM | Dose-dependent effect
COc1ccc(NC(=O)Nc2nc3c(ccc4ccccc43)s2)cc1 | 84.7% | 10.3% | – | –
COc1cc(NC(=O)Nc2nc(-c3cc4ccccc4o3)cs2)cc(OC)c1OC | 76.8% | 45.3% | – | –
COc1ccccc1NC(=O)Nc1cc(C(C)(C)C)nn1C | 102% | 95.2% | – | –
COc1cc(NC(=O)Nc2nc(-c3ccc(Cl)s3)cs2)cc(OC)c1OC | 60.8% | 0.01% | – | –
COc1ccc(NC(=O)Nc2nc(C)c(C(C)=O)s2)cc1 | 105% | 93.3% | – | –
COc1cccc(NC(=O)Nc2nc(C)c(C(C)=O)s2)c1 | 96.6% | 91.9% | – | –
Cc1ccc(-c2nc(NC(=O)Nc3cccc(Cl)c3)sc2C)cc1 | 88.5% | 45.6% | – | –
O=C(Nc1cccc(Cl)c1)Nc1nc2c(ccc3ccccc32)s1 | 69.3% | 0.02% | – | –
Cc1cc(=O)[nH]c(-n2nc(-c3ccccc3)cc2NC(=O)Nc2ccc3c(c2)OCO3)n1 | 57.7% | 3.99% | 30.4 µM | –
COc1ccc(NC(=O)Nc2nc(-c3ccccc3)c(C(C)=O)s2)cc1OC | 86% | 13.7% | – | –

Structure (SMILES) | residual activity [1] | residual activity [2] | IC50 [3] | inhibition [4]
COc1ccc(NC(=O)Nc2nc(-c3ccc(OC)c(OC)c3)cs2)cc1 | 92% | 68.7% | – | –
COc1ccc(NC(=O)Nc2nc(-c3ccc(C)c(Cl)c3)c(C)s2)cc1OC1CCCC1 | 39.8% | 13% | 92.6 µM | Dose-dependent effect
Cc1ccc(-c2nc(NC(=O)Nc3ccc(Cl)cc3)sc2C)cc1 | 91.8% | 20.6% | – | –
Cc1ccc(-c2nc(NC(=O)Nc3ccccc3)sc2C)cc1Cl | 65.6% | 41.4% | – | –
COc1cc(C)ccc1NC(=O)Nc1cn(-c2ccccc2)nc1-c1ccc(OC)c(OC)c1 | 88.9% | 57.5% | – | –
COc1ccccc1NC(=O)Nc1cc(C(C)(C)C)nn1-c1ccccc1 | 99.6% | 53.2% | – | –
COc1cc(NC(=O)Nc2cc(-c3ccccc3)nn2-c2nc(C)cc(=O)[nH]2)cc(OC)c1 | 57.5% | 16% | 73 µM | –
CCc1cc(=O)[nH]c(-n2nc(-c3ccccc3)cc2NC(=O)Nc2ccc(OC)cc2)n1 | 65.6% | 11.8% | – | –
COc1cccc(NC(=O)Nc2cc(C)nn2-c2ccc(F)cc2)c1 | 96% | 96.4% | – | –
CCOc1ccc(NC(=O)Nc2nc(-c3ccccc3)c(C)s2)cc1 | 76.7% | 43.9% | – | –
Cc1sc(NC(=O)Nc2ccc(Cl)cc2)nc1-c1ccccc1 | 91.5% | 95.8% | – | –
COc1cc(NC(=O)Nc2nc3c(OC)ccc(C)c3s2)cc(OC)c1OC | 99.3% | 83.5% | – | –
COc1ccccc1NC(=O)Nc1nc(-c2ccc(OC)c(OC)c2)cs1 | 88.1% | 80% | – | –
CCc1cc(=O)[nH]c(-n2nc(-c3ccccc3)cc2NC(=O)Nc2ccc(C(C)(C)C)cc2)n1 | 55.2% | 1.88% | 13.8 µM | –
COc1cc(NC(=O)Nc2nc3cc(C)c(C)cc3s2)cc(OC)c1OC | 94.8% | 96% | – | –
CCc1cc(=O)[nH]c(-n2nc(-c3ccccc3)cc2NC(=O)Nc2ccc3c(c2)OCO3)n1 | 36.7% | 5.69% | > 100 µM | –
CCc1c(C)nc(-n2nc(C)cc2NC(=O)Nc2cccc(OC)c2)[nH]c1=O | 98.1% | 103% | – | –
COc1ccc(NC(=O)Nc2cc(C)nn2C2CCCC2)cc1 | 93.7% | 103% | – | –
O=C(Nc1ccc(OCc2ccccc2)cc1)Nc1cc(-c2ccccc2)nn1-c1ccccc1 | 86.3% | 13.3% | – | –
Cn1nc(-c2ccc(Cl)cc2)cc1NC(=O)Nc1ccc(OCc2ccccc2)cc1 | 73.4% | 1.99% | – | –
Cc1ccc(S(=O)(=O)NC(=O)Nc2nc(-c3ccc(C)c(Cl)c3)c(C)s2)cc1 | 79.3% | 0.68% | – | –
